Experimental data reported in patent publication US20130196050A1, “SALTY TASTE ENHANCER” (AJINOMOTO CO., INC., priority 2010, published 2013).

Target: T1, Human ENaC δ, β and γ subunit (Homo sapiens, UniProt P51168+P51170+P51172)
T1 construct: expressed in transfected cells; host or cells: Xenopus laevis (African clawed frog) oocytes injected with cRNA
T1 sequence (P51172 1-638 isoform P51172-1): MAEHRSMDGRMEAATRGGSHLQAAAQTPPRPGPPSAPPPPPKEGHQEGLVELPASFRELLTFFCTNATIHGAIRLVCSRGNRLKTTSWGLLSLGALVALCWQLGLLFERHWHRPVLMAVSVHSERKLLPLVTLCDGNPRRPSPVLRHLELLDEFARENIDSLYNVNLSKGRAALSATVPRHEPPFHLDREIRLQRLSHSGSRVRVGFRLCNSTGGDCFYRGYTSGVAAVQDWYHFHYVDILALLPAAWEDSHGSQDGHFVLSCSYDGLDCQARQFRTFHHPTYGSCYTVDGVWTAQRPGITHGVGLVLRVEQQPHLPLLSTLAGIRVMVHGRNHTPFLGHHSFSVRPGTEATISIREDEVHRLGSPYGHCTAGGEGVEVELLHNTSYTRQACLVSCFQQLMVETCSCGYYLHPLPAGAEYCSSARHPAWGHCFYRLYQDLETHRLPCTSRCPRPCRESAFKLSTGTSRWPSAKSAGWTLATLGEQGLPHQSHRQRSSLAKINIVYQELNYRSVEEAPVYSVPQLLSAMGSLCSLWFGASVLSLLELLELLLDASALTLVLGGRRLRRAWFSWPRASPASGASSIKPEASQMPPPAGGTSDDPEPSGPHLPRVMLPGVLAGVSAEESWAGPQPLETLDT
T1 sequence (P51168 1-640): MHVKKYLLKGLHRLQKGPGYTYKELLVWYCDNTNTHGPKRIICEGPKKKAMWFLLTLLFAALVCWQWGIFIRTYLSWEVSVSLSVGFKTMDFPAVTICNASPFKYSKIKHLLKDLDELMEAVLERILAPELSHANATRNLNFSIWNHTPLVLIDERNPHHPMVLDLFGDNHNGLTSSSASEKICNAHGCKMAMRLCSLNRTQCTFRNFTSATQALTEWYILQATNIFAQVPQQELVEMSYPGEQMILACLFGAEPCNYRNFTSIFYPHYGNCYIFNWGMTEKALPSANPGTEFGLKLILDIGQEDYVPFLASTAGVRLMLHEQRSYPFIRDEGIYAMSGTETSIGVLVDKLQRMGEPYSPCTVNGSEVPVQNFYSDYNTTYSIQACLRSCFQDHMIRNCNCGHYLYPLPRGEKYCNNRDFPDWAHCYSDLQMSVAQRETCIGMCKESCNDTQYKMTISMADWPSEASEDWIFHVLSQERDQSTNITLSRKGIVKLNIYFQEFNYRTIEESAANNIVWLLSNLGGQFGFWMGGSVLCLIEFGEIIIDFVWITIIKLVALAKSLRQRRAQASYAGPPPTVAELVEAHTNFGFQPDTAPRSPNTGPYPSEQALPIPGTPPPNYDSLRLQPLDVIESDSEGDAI
T1 sequence (P51170 1-649): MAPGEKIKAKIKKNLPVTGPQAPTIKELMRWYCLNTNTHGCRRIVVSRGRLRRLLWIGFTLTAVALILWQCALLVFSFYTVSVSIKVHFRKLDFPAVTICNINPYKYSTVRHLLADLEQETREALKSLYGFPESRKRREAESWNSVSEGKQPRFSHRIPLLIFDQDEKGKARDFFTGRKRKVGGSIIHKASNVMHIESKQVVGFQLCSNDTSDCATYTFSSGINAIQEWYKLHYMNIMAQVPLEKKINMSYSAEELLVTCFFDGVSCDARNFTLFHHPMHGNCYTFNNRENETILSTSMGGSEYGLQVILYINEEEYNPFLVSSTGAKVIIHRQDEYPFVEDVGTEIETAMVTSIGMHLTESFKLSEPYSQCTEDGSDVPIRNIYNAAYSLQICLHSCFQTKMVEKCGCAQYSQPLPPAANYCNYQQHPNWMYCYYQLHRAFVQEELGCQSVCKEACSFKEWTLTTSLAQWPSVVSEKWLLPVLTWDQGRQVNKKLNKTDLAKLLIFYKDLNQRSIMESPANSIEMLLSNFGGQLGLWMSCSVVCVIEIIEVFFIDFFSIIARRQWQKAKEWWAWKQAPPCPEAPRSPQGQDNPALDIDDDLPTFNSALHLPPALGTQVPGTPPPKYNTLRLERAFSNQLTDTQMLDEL
Assay: Measurement of ENaC activation potency (two electrode voltage clamp current in ENaC-expressing oocyte)
Assay type: cell-based
In short: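 Xenopus oocytes were injected with human ENaC δ, β and γ cRNA, cultured 16–72 h, and voltage-clamped by two-electrode clamp at −30 mV below resting potential in ND96 (pH 7.6) perfusion. Compounds (0.1 nM–300 μM) were added in rising concentrations at 3-min intervals. MED was the first concentration raising current by ≥10% over pre-addition current.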

concentration from which the ENaC activation current starts to increase (FIG. 3): 0.00001 g/dL
concentration at which the ENaC activation current reaches the maximum current value (FIG. 3, almost constant up to 0.0080 g/dl): 0.0020 g/dL
MED value (minimum effective dose) (lowest concentration increasing the current value by not less than 10% vs before addition): 0.1 to 0.3 µM
SMILES: O=C(NCCc1c[nH]c2ccc(O)cc12)c1c(O)cccc1O [Example 35, 2,6-dihydroxy-N-(2-(5-hydroxy-1H-indol-3-yl)ethyl)benzamide]
